What was measured:
Assay type in all cases: biochemical
ROCK2 = ROCK2 (Homo sapiens, UniProt O75116); experiment: In vitro inhibitory activity assay ROCK2 (ADP-Glo); conditions: ATP 200 μM, Cheng-Prusoff; read-out: ROCK2 (Ki, range of activity)
Procedure, shortened: (§1)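 ROCK1 or ROCK2 preincubated 30 min with compound (1% DMSO) at 25 °C, then run 1 h with 2.5 μM myelin basic protein and 200 μM ATP in Tris pH 7.5/MgCl2 buffer. ADP detected by ADP-Glo luminescence; IC50 from variable-slope fit, converted to Ki by Cheng–Prusoff.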

PKA = PKA (Homo sapiens, UniProt P17612); experiment: In vitro inhibitory activity assay for PKA (ADP-Glo), reported as selectivity ratio vs ROCK2; conditions: Ki value for PKA divided by Ki value of ROCK2
Procedure, shortened: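 ADP-Glo PKA assay at 25° C in 40 mM Tris pH7.5, 20 mM MgCl2, 0.1 mg/ml BSA, 50 μM DTT, 260 μM kemptide, 1% DMSO. Compound preincubated 30 mins with enzyme, then 30 minute reaction at 10 μM ATP final; luminescence read. IC50 from sigmoidal fit, Ki via Cheng-Prusoff, reported as selectivity ratio vs ROCK-2.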

ROCK1 = ROCK1 (Homo sapiens, UniProt Q13464); experiment: In vitro inhibitory activity assay ROCK1 (ADP-Glo); conditions: ATP 200 μM, Cheng-Prusoff; read-out: ROCK 1 (Ki, range of activity)
Procedure, shortened: as §1

ROCK1, sequence (Q13464 whole entry): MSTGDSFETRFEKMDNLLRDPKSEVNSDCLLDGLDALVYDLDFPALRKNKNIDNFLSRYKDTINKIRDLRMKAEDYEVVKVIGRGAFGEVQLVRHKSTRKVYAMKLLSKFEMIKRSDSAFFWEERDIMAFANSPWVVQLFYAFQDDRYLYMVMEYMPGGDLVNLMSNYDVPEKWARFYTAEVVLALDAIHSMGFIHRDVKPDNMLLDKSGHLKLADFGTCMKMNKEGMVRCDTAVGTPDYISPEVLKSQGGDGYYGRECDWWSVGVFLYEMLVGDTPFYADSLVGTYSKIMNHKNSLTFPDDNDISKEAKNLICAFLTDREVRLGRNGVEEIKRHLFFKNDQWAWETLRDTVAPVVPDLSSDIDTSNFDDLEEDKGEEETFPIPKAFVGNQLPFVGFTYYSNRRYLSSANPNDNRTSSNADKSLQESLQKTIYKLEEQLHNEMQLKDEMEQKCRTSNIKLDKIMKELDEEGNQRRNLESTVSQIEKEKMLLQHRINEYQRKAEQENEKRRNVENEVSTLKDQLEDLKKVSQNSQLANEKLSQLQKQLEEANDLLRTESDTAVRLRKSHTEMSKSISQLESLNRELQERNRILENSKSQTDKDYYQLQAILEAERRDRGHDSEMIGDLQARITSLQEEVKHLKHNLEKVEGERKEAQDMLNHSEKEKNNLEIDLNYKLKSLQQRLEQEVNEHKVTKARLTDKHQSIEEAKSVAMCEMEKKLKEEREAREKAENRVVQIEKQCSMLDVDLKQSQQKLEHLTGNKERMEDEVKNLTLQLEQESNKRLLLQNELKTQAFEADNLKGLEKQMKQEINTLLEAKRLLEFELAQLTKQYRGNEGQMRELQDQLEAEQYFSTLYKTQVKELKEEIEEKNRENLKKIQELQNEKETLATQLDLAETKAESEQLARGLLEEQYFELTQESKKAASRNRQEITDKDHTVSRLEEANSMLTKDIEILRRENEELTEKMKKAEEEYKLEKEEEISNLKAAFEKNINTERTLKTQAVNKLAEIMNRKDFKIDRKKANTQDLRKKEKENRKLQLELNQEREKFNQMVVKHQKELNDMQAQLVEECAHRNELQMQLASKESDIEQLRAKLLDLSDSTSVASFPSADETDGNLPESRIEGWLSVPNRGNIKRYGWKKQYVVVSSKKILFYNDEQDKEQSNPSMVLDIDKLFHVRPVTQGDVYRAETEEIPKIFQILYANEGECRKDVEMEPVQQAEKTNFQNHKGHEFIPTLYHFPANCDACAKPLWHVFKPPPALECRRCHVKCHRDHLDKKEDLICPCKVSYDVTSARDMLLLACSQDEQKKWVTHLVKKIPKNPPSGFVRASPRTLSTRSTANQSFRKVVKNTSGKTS
ROCK2, sequence (O75116 whole entry): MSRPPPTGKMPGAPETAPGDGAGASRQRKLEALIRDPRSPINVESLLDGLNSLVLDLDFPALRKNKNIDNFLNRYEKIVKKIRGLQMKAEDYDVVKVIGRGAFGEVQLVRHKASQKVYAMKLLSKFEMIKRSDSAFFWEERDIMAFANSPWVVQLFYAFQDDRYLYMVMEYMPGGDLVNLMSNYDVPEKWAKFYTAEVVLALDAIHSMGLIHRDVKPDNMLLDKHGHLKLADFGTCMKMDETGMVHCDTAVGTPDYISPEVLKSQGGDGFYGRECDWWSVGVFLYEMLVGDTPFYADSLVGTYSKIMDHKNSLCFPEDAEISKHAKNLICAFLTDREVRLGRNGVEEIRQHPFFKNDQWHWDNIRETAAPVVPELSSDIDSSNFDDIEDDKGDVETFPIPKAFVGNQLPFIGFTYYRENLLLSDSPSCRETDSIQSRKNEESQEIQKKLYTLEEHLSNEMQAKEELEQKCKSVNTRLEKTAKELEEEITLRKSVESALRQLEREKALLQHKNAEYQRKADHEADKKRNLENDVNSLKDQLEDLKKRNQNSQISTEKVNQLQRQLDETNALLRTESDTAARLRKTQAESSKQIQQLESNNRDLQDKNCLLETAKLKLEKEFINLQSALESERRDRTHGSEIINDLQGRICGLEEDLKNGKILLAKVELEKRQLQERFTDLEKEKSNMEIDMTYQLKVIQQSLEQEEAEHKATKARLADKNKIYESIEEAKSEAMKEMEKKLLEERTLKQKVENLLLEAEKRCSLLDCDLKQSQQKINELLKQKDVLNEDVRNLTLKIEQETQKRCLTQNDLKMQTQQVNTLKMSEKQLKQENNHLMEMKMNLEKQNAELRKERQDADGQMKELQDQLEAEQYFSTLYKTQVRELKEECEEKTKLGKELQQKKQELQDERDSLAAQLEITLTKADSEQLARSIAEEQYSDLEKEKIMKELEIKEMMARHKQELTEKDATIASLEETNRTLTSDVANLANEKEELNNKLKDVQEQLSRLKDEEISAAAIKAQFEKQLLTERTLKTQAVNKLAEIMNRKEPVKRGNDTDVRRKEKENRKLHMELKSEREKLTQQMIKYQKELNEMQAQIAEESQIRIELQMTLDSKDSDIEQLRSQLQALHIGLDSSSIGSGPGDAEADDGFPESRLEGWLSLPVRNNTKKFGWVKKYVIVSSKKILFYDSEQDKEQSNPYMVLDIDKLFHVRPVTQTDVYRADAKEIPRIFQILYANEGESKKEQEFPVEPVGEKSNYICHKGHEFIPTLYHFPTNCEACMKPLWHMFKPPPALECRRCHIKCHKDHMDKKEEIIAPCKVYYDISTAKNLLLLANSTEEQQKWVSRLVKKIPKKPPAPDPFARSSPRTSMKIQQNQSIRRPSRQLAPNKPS

With CC(C)(C)N1CC(CNC(=O)c2cccc(CNc3ncc(-c4ccnc(N)n4)c4c3CCO4)c2)CC1=O (single isomer, unassigned) [Example 32, 3-(((7-(2-Aminopyrimidin-4-yl)-2,3-dihydrofuro[3,2-c]pyridin-4-yl)amino)methyl)-N-((1-(tert-butyl)-5-oxopyrrolidin-3-yl)methyl)benzamide] the Ki (ROCK2) was ≤ 3 nM, the “Ratio (PKA/ROCK2)” value (PKA) was “*** (ratio≥10)” and the Ki (ROCK1) was ≤ 3 nM.

From patent US20240092790A1, “DIHYDROFUROPYRIDINE DERIVATIVES AS RHO- KINASE INHIBITORS” (CHIESI FARMACEUTICI S.P.A., priority 2020, published 2024)
